This note sets out measurements from patent US11788060B2, “Small molecule compound composition that efficiently induces differentiation of human pluripotent stem cells into myocardial cells” (Shanghai Institute of Nutrition and Health, Chinese Academy …, priority 2016, dated 2023).

The subject of test [1] is human embryonic stem cells. As to the kind of experiment: Cell count of stem cells in high-density monolayer culture. The conditions noted are these: DMSO, CHIR or CHIR+rapamycin; 5×10^4/cm^2, days 1-4. It counts as cell-based. As to the method: The correlated detection was performed under three treatment conditions of DMSO, CHIR and CHIR+rapamycin. […] (Due to the replacement of the culture medium on the 4th day, stem cells underwent massive death because of the rapid changes in the environment).

Test [2] deals with stem cells. Briefly: Annexin V/PI staining of apoptosis and cell death. It counts as cell-based, human. As for the experimental part: Annexin V/PI staining: Annexin V/PI kit (Roche) was used in this experiment. The cells were cultured in 24-well plates. At the specified time, the cells were digested into single cells with accutase and washed once with PBS. The cells were incubated with staining solution containing Annexin V and PI for 10 minutes. Care was taken to avoid light. 5 volumes of incubation solution was added to dilute thereby stopping the reaction and tested by flow cytometry immediately, the excitation lights were 488 nm and 518 nm, the emission lights were 488-540 nm and 617 nm.

In the next test the test system is Parp. Briefly: Western blot of Parp cleavage. It counts as cell-based, human. The settings on record: first 4 days of treatment. From the text: Wherein figure (A and B) show the influence of different small molecules on proliferation rate of the stem cells by means of cell cycle analysis and BrdU proliferation detection. (C) Western blot analysis of intracellular Parp protein cleavage to estimate cell death under different treatment. (D) Influence of rapamycin on activity of apoptosis executive caspase 3/7 determined by luciferase reporter system. (E) Detection of the proportion of cell death treated with or without rapamycin by Annexin V/PI staining at the end of the culture on day 3 and day 4. […] All the results are statistically analyzed for at least 3 independently repeated experiments (* P<0.05, ** P<0.01).
Caspase 3, 6, and 7 are the execution proteins of apoptosis and are mainly responsible for the cleavage of structural proteins and regulatory proteins in the nucleus and cytoplasm.
(In western blotting, separated proteins are transferred to a membrane and probed.)

Test [3] concerns stem cells. Briefly: Cell cycle analysis and BrdU cell proliferation assay. The conditions noted are these: compared with DMSO control group. It counts as cell-based, human. As for the experimental part: After 10 μM BrdU (Sigma-Aldrich) was added to incubate the cells for 1 hour, cells were harvested, digested and centrifuged at 300 g for 5 minutes. Cells were collected, washed once with PBS containing 0.5% BSA (wash solution) at room temperature, and resuspended in 1 ml of PBS. 3 ml of pre-cooled ethanol was added with shaking and settled for 20 minutes at room temperature. Centrifuge to remove the supernatant, wash once with PBS, centrifuge to remove supernatant, loosen the pellet by flicking a few times, add 1 ml of the freshly prepared denaturation solution (2M HCl) and mix. Allow to stand at room temperature for 20 minutes; add 1 ml of 0.1 M sodium borate (pH 8.5) to neutralize for 2 minutes at room temperature; rinse once and add anti-BrdU antibody (BD Biosciences 1:50 dilution) prepared with PBS containing 0.5% Tween 20/0.5% BSA (Sigma-Aldrich); aspirate primary antibody, rinse with 1 ml wash solution, add Alexa-488-anti-mouse (1:1000), incubate for 20 minutes at room temperature; aspirate secondary antibody, rinse again, resuspend with 0.5 ml 10 μg/ml PI solution and incubate for 30 minutes at room temperature. The supernatant was removed by centrifugation, rinsed again with a wash solution, and tested with flow cytometry.

Regarding `Cc1c[nH]c(-c2cnc(NCCNc3ccc(C#N)cn3)nc2-c2ccc(Cl)cc2Cl)n1` [CHIR99021], the stem cell number entry in test [1] is “accelerated the increase in stem cell number in the first 3 days”. Moreover, in the test with stem cells [2] (4th day, 24 hours after replacing with RPMI/B27 differentiation medium), the “proportion of cell death” value is reported as “nearly half”. For the same compound, the “Annexin V-positive apoptotic cells” value with stem cells [2] (end of culture on the third day) is reported as 25.8%. Also, in the test on Parp, the Parp cleavage band result is “gradually increased”. Further, in the test on stem cells [3], the “proportion of cells in S phase and proportion of BrdU positive cells” value was “slightly increased”.
